Source: US20260001928A1 (CORTERIA PHARMACEUTICALS, priority 2022, published 2026)
*1 amine or outer side, *2 acyl side, *3 side chain or, on linkers, in order; H or OH if unused. Where a SMILES comes first, the peptide text is derived from it. Side-chain parts run from the residue outwards. [ ]: non-standard residue; d: D form. The star is where a group is joined. C20 diacid = O=C(O)CCCCCCCCCCCCCCCCCCC(=O)*; C18 diacid = O=C(O)CCCCCCCCCCCCCCCCC(=O)*; C16 diacid = O=C(O)CCCCCCCCCCCCCCC(=O)*; γGlu = O=C(O)[C@H](CCC(=O)[*:2])N[*:1]; NMeI = CC[C@H](C)[C@H](NC)C(=O)O; Api = NC1(C(=O)O)CCNCC1; Aib = CC(C)(N)C(=O)O; Butyryl = CCCC(=O)*

Key:
CFR1R receptor = molecular target: T1, CFR1R receptor (Homo sapiens, UniProt P34998); test: Activity at anti-target CFR1R receptor, cAMP assay in CRF1R-overexpression CHO-K1 cells; type: cell-based; details: 100% = Sauvagine at 100 nM; for EC50: cAMP
T1 construct: host or cells: CHO-K1 (clone 2)
T1 sequence (P34998 24-415): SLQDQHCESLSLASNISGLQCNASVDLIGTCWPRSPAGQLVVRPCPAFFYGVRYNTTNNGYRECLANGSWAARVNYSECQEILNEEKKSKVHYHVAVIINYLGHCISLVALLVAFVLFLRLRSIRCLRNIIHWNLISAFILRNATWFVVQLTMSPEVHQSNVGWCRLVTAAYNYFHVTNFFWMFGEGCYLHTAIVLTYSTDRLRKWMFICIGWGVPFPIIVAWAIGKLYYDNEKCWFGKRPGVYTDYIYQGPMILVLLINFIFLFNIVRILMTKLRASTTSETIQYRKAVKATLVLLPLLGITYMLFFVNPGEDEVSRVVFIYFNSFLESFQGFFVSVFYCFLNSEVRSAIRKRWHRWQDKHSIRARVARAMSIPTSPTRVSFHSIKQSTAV
Summary of the method: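 Grow clone 2 to near confluence at 37° C. under 5% CO2 in F12 (Hams) with 10% FBS and G418, harvest, and freeze in 10% DMSO. Thaw and plate at 4000 cells/well. Then proceed per the TeloHAEC method, normalising to Sauvagine 100 nM as maximum.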

human CRF2a receptor = molecular target: T2, human CRF2a receptor (Homo sapiens, UniProt Q13324); test: Activity at human CRF2a receptor, cAMP functional assay in TeloHEAC cells; type: cell-based; details: TeloHEAC cells stably expressing human CRF2a receptor, relative to urocortin 2 (100 nM = 100%)
T2 construct: expressed in transfected cells; host or cells: TeloHEAC cells
T2 sequence (Q13324 1-411): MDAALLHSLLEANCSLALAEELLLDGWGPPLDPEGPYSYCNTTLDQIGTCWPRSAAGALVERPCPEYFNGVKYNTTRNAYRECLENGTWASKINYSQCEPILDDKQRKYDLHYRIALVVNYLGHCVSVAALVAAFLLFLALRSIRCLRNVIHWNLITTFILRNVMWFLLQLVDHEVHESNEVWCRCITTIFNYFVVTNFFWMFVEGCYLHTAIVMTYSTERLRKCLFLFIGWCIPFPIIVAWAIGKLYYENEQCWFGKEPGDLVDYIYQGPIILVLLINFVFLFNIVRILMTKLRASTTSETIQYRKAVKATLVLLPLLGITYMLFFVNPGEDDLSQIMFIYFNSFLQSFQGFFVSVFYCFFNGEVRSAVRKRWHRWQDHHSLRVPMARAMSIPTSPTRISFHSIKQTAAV
Summary of the method: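 TeloHEAC cells stably expressing human CRF2a (10000 cells/well, suspended in HBSS/20 mM HEPES with 2 mM IBMX) were exposed to compounds for 30 min at 37 °C. cAMP was read as the 665/620 nm fluorescence ratio after 1 h at room temperature. EC50 was derived relative to 100 nM urocortin 2, set as 100%.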

SMILES | Emax (% I) (CFR1R receptor) | EC50 (CFR1R receptor) [pM] | EC50 (human CRF2a receptor) [pM]
CC[C@H](C)[C@H](NC)C(=O)N[C@H](C(=O)N[C@@H](CC(C)C)C(=O)N[C@@H](CO)C(=O)N[C@@H](CC(C)C)C(=O)N[C@@H](CC(=O)O)C(=O)N[C@@H](C(=O)N1CCC[C@H]1C(=O)N[C@H](C(=O)N[C@@H](CCCCN)C(=O)N[C@@H](CC(C)C)C(=O)N[C@@H](CCCCNC(=O)CC[C@H](NC(=O)CCCCCCCCCCCCCCC(=O)O)C(=O)O)C(=O)N[C@@H](CCCCN)C(=O)N[C@H](C(=O)N[C@@H](CC(C)C)C(=O)N[C@@H](CC(C)C)C(=O)N[C@@H](CCC(=O)O)C(=O)N[C@@H](CCC(N)=O)C(=O)N[C@@H](CCC(=O)O)C(=O)N[C@@H](CCCCN)C(=O)N[C@@H](CCC(N)=O)C(=O)N[C@@H](CCCCN)C(=O)N[C@@H](CCCCN)C(=O)N[C@@H](CCC(N)=O)C(=O)N[C@@H](CCCNC(=N)N)C(=O)N[C@@H](CCC(=O)O)C(=O)N[C@@H](CCC(N)=O)C(=O)N[C@@H](C)C(=O)N[C@@H](CCC(=O)O)C(=O)N[C@H](C(=O)N[C@@H](CC(N)=O)C(=O)NC1(C(=O)N[C@@H](CCC(N)=O)C(=O)N[C@H](C(=O)N[C@@H](CC(C)C)C(=O)N[C@@H](C)C(=O)N[C@@H](CCC(N)=O)C(=O)N[C@H](C(N)=O)C(C)C)[C@@H](C)CC)CCNCC1)[C@@H](C)O)[C@@H](C)CC)[C@@H](C)CC)C(C)C)C(C)C [compound 72] (H-[NMeI]VLSLD[dV]PIKLK([γGlu-C16 diacid])KILLEQEKQKKQREQAETN[Api]QILAQV-NH2) | 18 | > 250000 | 140
CC[C@H](C)[C@H](NC(C)=O)C(=O)N[C@H](C(=O)N[C@@H](CC(C)C)C(=O)N[C@@H](CO)C(=O)N[C@@H](CC(C)C)C(=O)N[C@@H](CC(=O)O)C(=O)N[C@@H](C(=O)N1CCC[C@H]1C(=O)N[C@H](C(=O)N[C@@H](CCCCN)C(=O)N[C@@H](CC(C)C)C(=O)N[C@@H](CCCCNC(=O)CC[C@H](NC(=O)CC[C@H](NC(=O)CCCCCCCCCCCCCCCCCCC(=O)O)C(=O)O)C(=O)O)C(=O)N[C@@H](CCCCN)C(=O)N[C@H](C(=O)N[C@@H](CC(C)C)C(=O)N[C@@H](CC(C)C)C(=O)N[C@@H](CCC(=O)O)C(=O)N[C@@H](CCC(N)=O)C(=O)N[C@@H](CCC(=O)O)C(=O)N[C@@H](CCCCN)C(=O)N[C@@H](CCC(N)=O)C(=O)N[C@@H](CCCCN)C(=O)N[C@@H](C)C(=O)N[C@@H](CCC(N)=O)C(=O)N[C@@H](CCCNC(=N)N)C(=O)N[C@@H](CCC(=O)O)C(=O)N[C@@H](CCC(N)=O)C(=O)N[C@@H](C)C(=O)N[C@@H](CCC(=O)O)C(=O)N[C@H](C(=O)N[C@@H](CC(N)=O)C(=O)NC(C)(C)C(=O)N[C@@H](CCC(N)=O)C(=O)N[C@H](C(=O)N[C@@H](CC(C)C)C(=O)N[C@@H](C)C(=O)N[C@@H](CCC(N)=O)C(=O)N[C@H](C(N)=O)C(C)C)[C@@H](C)CC)[C@@H](C)O)[C@@H](C)CC)[C@@H](C)CC)C(C)C)C(C)C [compound 244] (Ac-IVLSLD[dV]PIKLK([γGlu-γGlu-C20 diacid])KILLEQEKQKAQREQAETN[Aib]QILAQV-NH2) | 8 | > 250000 | 280
CCCC(=O)N[C@H](C(=O)N[C@@H](CC(C)C)C(=O)N[C@@H](CO)C(=O)N[C@@H](CC(C)C)C(=O)N[C@@H](CC(=O)O)C(=O)N[C@@H](C(=O)N1CCC[C@H]1C(=O)N[C@H](C(=O)N[C@@H](CCCCN)C(=O)N[C@@H](CC(C)C)C(=O)N[C@@H](CCCCNC(=O)CC[C@H](NC(=O)CCCCCCCCCCCCCCC(=O)O)C(=O)O)C(=O)N[C@@H](CCC(N)=O)C(=O)N[C@H](C(=O)N[C@@H](CC(C)C)C(=O)N[C@@H](CC(C)C)C(=O)N[C@@H](CCCCN)C(=O)N[C@@H](CCC(N)=O)C(=O)N[C@@H](CCC(=O)O)C(=O)N[C@@H](CCCNC(=N)N)C(=O)N[C@@H](CCC(N)=O)C(=O)N[C@@H](CCCCN)C(=O)N[C@@H](CCCCN)C(=O)N[C@@H](CCC(N)=O)C(=O)N[C@@H](CCCNC(=N)N)C(=O)N[C@@H](CCC(=O)O)C(=O)N[C@@H](CCC(N)=O)C(=O)N[C@@H](C)C(=O)N[C@@H](CCC(=O)O)C(=O)N[C@@H](CCCCN)C(=O)N[C@@H](CC(N)=O)C(=O)N[C@@H](CCCCN)C(=O)N[C@@H](CCC(N)=O)C(=O)N[C@H](C(=O)N[C@@H](CC(C)C)C(=O)N[C@@H](CCC(=O)O)C(=O)N[C@@H](CCC(N)=O)C(=O)N[C@H](C(N)=O)C(C)C)[C@@H](C)CC)[C@@H](C)CC)[C@@H](C)CC)C(C)C)C(C)C [compound 7] (Butyryl-VLSLD[dV]PIKLK([γGlu-C16 diacid])QILLKQERQKKQREQAEKNKQILEQV-NH2) | 59 |  | 60
CC[C@H](C)[C@H](NC)C(=O)N[C@H](C(=O)N[C@@H](CC(C)C)C(=O)N[C@@H](CO)C(=O)N[C@@H](CC(C)C)C(=O)N[C@@H](CC(=O)O)C(=O)N[C@@H](C(=O)N1CCC[C@H]1C(=O)N[C@H](C(=O)N[C@@H](CCCCN)C(=O)N[C@@H](CC(C)C)C(=O)N[C@@H](CCCCNC(=O)CC[C@H](NC(=O)CCCCCCCCCCCCCCCCC(=O)O)C(=O)O)C(=O)N[C@@H](CCC(N)=O)C(=O)N[C@H](C(=O)N[C@@H](CC(C)C)C(=O)N[C@@H](CC(C)C)C(=O)N[C@@H](CCCCN)C(=O)N[C@@H](CCC(N)=O)C(=O)N[C@@H](CCC(=O)O)C(=O)N[C@@H](CCCNC(=N)N)C(=O)N[C@@H](CCC(N)=O)C(=O)N[C@@H](CCCCN)C(=O)N[C@@H](CCCCN)C(=O)N[C@@H](CCC(N)=O)C(=O)N[C@@H](CCCNC(=N)N)C(=O)N[C@@H](CCC(=O)O)C(=O)N[C@@H](CCC(N)=O)C(=O)N[C@@H](C)C(=O)N[C@@H](CCC(=O)O)C(=O)N[C@@H](CCCCN)C(=O)N[C@@H](CC(N)=O)C(=O)N[C@@H](C)C(=O)N[C@@H](CCC(N)=O)C(=O)N[C@H](C(=O)N[C@@H](CC(C)C)C(=O)N[C@@H](CCC(=O)O)C(=O)N[C@@H](CCC(N)=O)C(=O)N[C@H](C(N)=O)C(C)C)[C@@H](C)CC)[C@@H](C)CC)[C@@H](C)CC)C(C)C)C(C)C [compound 24] (H-[NMeI]VLSLD[dV]PIKLK([γGlu-C18 diacid])QILLKQERQKKQREQAEKNAQILEQV-NH2) | 37 | > 250000 | 40
CC[C@H](C)[C@H](NC(C)=O)C(=O)N[C@H](C(=O)N[C@@H](CC(C)C)C(=O)N[C@@H](CO)C(=O)N[C@@H](CC(C)C)C(=O)N[C@@H](CC(=O)O)C(=O)N[C@@H](C(=O)N1CCC[C@H]1C(=O)N[C@H](C(=O)N[C@@H](CCCCN)C(=O)N[C@@H](CC(C)C)C(=O)N[C@@H](CCCCNC(=O)CC[C@H](NC(=O)CCCCCCCCCCCCCCC(=O)O)C(=O)O)C(=O)N[C@@H](CCCCN)C(=O)N[C@H](C(=O)N[C@@H](CC(C)C)C(=O)N[C@@H](CC(C)C)C(=O)N[C@@H](CCC(=O)O)C(=O)N[C@@H](CCC(N)=O)C(=O)N[C@@H](CCC(=O)O)C(=O)N[C@@H](CCCCN)C(=O)N[C@@H](CCC(N)=O)C(=O)N[C@@H](CCCCN)C(=O)N[C@@H](CCCCN)C(=O)N[C@@H](CCC(N)=O)C(=O)N[C@@H](CCCNC(=N)N)C(=O)N[C@@H](CCC(=O)O)C(=O)N[C@@H](CCC(N)=O)C(=O)N[C@@H](C)C(=O)N[C@@H](CCC(=O)O)C(=O)N[C@H](C(=O)N[C@@H](CC(N)=O)C(=O)N[C@H](C(=O)N[C@@H](CCC(N)=O)C(=O)N[C@H](C(=O)N[C@@H](CC(C)C)C(=O)N[C@@H](C)C(=O)N[C@@H](CCC(N)=O)C(=O)N[C@H](C(N)=O)C(C)C)[C@@H](C)CC)C(C)C)[C@@H](C)O)[C@@H](C)CC)[C@@H](C)CC)C(C)C)C(C)C [compound 48] (Ac-IVLSLD[dV]PIKLK([γGlu-C16 diacid])KILLEQEKQKKQREQAETNVQILAQV-NH2) | 4 | > 250000 | 1350
